The source of these data is US20260309717A1, “PROXIMITY INDUCING SYSTEM AND USES THEREOF” (SORBONNE UNIVERSITE, priority 2022, published 2026).

SMILES strings stand for the structures.

Assay type in all cases: cell-based
Test [1] concerns mCherry-FKBP-^FIREtag / TOM20-^FIREmate / FRB-ECFP-Giantin. The test is described as follows: Orthogonality with FRB-FKBP-rapamycin CIP system, confocal microscopy, HeLa cells. To be noted: simultaneous addition of 10 μM HBR-2,5DM and 500 nM rapamycin. The protocol: FIG. 12A is a representation of the experimental design wherein HeLa cells co-expressing mCherry-FKBP-^FIREtag, TOM20-^FIREmate and FRB-ECFP-Giantin were treated with 10 μM of match (i.e., HBR-2,5DM) and 500 nM rapamycin, and imaged by time-lapse confocal microscopy. FIG. 12B is a set of representative confocal micrographs of cells before and after addition of HBR-2,5DM (match1) and rapamycin (rap) (mCherry: ex/em 561/606-675 nm; FIRE: ex/em 488/508-570 nm; ECFP: ex/em 445/455-499 nm). Scale bars are 20 μm.
The confocal micrographs were acquired on a Zeiss LSM 980 Laser Scanning Microscope equipped with a plan apochromat 63x/1.4 NA oil immersion objective. ZEN software was used to collect the data. The images were analyzed using Icy (2.4.0.0) and Fiji (Image J). In short, to track fluorescence signal in a specific organelle, a ROI (region of interest) was determined by masking the signal in the ECFP (Enhanced Cyan Fluorescent Protein) channel with the plug-in HK-means with the following parameters: intensity class equals 100, minimum object size (pixels or px) equals 500, maximum object size (px) equals 1500-3000. The signal intensity of the ROI was tracked over time for each channel by using plug-in Active Contours. The background signal was subtracted. Data were processed using GraphPad Prism v9.3.0. […]

In test [2] the target is T1, mCherry-^FIREtag / Lyn11-ECFP-^FIREmate (Halorhodospira halophila, UniProt P16113, A30V/C69G/D97P/F96I, form not given/G21E/G25R/K17N/M100R/M109L/Q41L/Q99S/S72T/T101G/V83A/Y94W/Y98T).
T1 construct: Lyn11-ECFP-FIREmate and mCherry-FIREtag in HEK293 cells
T1 sequence (P16113 1-114 A30V/C69G/D97P/F96I/G21E/G25R/K17N/M100R/M109L/Q41L/Q99S/S72T/T101G/V83A/Y94W/Y98T): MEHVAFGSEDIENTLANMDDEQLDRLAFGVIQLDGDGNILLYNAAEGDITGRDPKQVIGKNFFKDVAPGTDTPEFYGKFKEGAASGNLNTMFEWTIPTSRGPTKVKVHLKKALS
The test is described as follows: Recruitment of cytoplasmic protein to the plasma membrane, HEK293 cells. To be noted: 10 μM. Here is the method: FIGS. 8A-E illustrate the recruitment of cytoplasmic proteins to the plasma membrane with the proximity inducing system described herein. FIG. 8A is a representation of the experimental design wherein HEK293 cells co-expressing mCherry-^FIREtag and Lyn11-ECFP-^FIREmate were treated with 10 μM of match (either HBR-2,5DM or HMBR), and imaged by time-lapse confocal microscopy. FIGS. 8B-C are graphs showing the temporal evolution of the FIRE signal detected upon addition at 0 min of HBR-2,5DM (match1-8B) or HMBR (match2-8C). Data represents the mean values±SD of 22 cells from n=3 independent experiments (8B, D), or of 30 cells from n=3 independent experiments (8C, E). FIGS. 8D-E are sets of representative confocal micrographs of cells before (0 min) and after (5 min) addition of HBR-2,5DM (match1-8D) or HMBR (match2-8E) (mCherry: ex/em 561/606-675 nm; FIRE: ex/em 488/508-570 nm; ECFP: ex/em 445/455-499 nm). […] Scale bars are 20 μm.
The confocal micrographs were acquired on a Zeiss LSM 980 Laser Scanning Microscope equipped with a plan apochromat 63x/1.4 NA oil immersion objective. ZEN software was used to collect the data. The images were analyzed using Icy (2.4.0.0) and Fiji (Image J). In short, to track fluorescence signal in a specific organelle, a ROI (region of interest) was determined by masking the signal in the ECFP (Enhanced Cyan Fluorescent Protein) channel with the plug-in HK-means with the following parameters: intensity class equals 100, minimum object size (pixels or px) equals 500, maximum object size (px) equals 1500-3000. The signal intensity of the ROI was tracked over time for each channel by using plug-in Active Contours. The background signal was subtracted. Data were processed using GraphPad Prism v9.3.0.
To further evaluate the scope of the proximity inducing system described herein and show its versatility, ^FIREmate was anchored at the membrane of various organelles or cellular structures so that ^FIREmate faced the cytosol. ^FIREmate was thus fused: • to the N-terminus of the transmembrane domain (amino acid residues at positions 3131-3259) of Giantin for location at the cis-medial rims of the Golgi apparatus (FIG. 6A), • to the N-terminus of the transmembrane domain (amino acid residues at positions 100-134) of the cytochrome b5 (Cb5) for location at the endoplasmic reticulum membrane (FIG. 7A), and • to the C-terminus of the Lyn11 inner membrane targeting sequence for location at the plasma membrane (FIG. 8A).
For each construct, an ECFP was inserted between ^FIREmate and the other protein domain/sequence to monitor the localization of the resulting fusion protein (blue fluorescence). Each fusion protein was co-expressed in mammalian cells (HeLa cells or HEK293 cells as indicated) together with mCherry-^FIREtag (red fluorescence). […]

For test [3], the target named is T2, FKBP-caged^FIREtag / FRB-^FIREmate (Halorhodospira halophila, UniProt P16113, A30V/C69G/D97P/F96I, form not given/G21E/G25R/K17N/M100R/M109L/Q41L/Q99S/S72T/T101G/V83A/Y94W/Y98T).
T2 construct: FKBP-caged FIREtag (PYP 2-114 C69G cage) and FRB-FIREmate co-expressed in HEK293T cells
T2 sequence (P16113 1-114 A30V/C69G/D97P/F96I/G21E/G25R/K17N/M100R/M109L/Q41L/Q99S/S72T/T101G/V83A/Y94W/Y98T): T1 sequence (P16113 1-114 A30V/C69G/D97P/F96I/G21E/G25R/K17N/M100R/M109L/Q41L/Q99S/S72T/T101G/V83A/Y94W/Y98T)
Nature of the test: Flow cytometry of ternary assembly formation with caged^FIREtag, HEK293T cells. The text has this:
FIG. 10 is a graph illustrating the fluorogen-dependent interaction between caged ^FIREtag and ^FIREmate. […] Data represent the mean values±SD of 3 independent experiments.
Although, as indicated above, no self-complementation between ^FIREtag and ^FIREmate could be observed in the absence of fluorogen (see FIG. 3), a caged FIREt was designed to prevent any interaction with ^FIREmate in the absence of fluorogen, even at high expression levels. To cage ^FIREtag, the N-terminal domain 2-114 of Halorhodospira halophila photoactive yellow protein (PYP) C69G (corresponding to SEQ ID NO: 21) was fused to ^FIREtag. The intramolecular interaction between ^FIREtag and the N-terminal domain 2-114 of H. halophila PYP C69G induces the folding of the caged^FIREtag protein, thus preventing any intermolecular interaction of the caged^FIREtag with ^FIREmate. The fusion proteins FKBP-caged^FIREtag and FRB-^FIREmate were co-expressed in HEK293T cells. The cells were then treated with the fluorogens HBR-2,5DM at various concentrations (1, 5, 10, 25 or 50 μM as indicated), in the presence or absence of rapamycin.

On to `Cc1cc(/C=C2\SC(=S)NC2=O)c(C)cc1O` [HBR-2,5DM, (Z)-5-(4-hydroxy-2,5-dimethylbenzylidene)-2-thioxo-1,3-thiazolidin-4-one], for which, in test [1], the “translocation of mCherry-FKBP-^FIREtag” value was “triggered the translocation of mCherry-FKBP-^FIREtag to the Golgi apparatus and to the mitochondria”. In test [2], the “FIRE signal at the plasma membrane” value was “simultaneous appearance of green fluorescence” and the “translocation of mCherry-^FIREtag to the plasma membrane” value is recorded as “rapid translocation of mCherry-^FIREtag to the organelle”. For the same compound, in test [3] (1, 5, 10, 25 or 50 μM, even in absence of rapamycin), the “formation of fluorescent ternary assembly with caged^FIREtag and ^FIREmate” value is listed as “could still form a fluorescent ternary assembly”. Further, the “concentration required to reach full ternary assembly with caged^FIREtag” value in test [3] (absence of rapamycin) is given as “higher concentrations of HBR-2,5DM were required to reach full ternary assembly in absence of rapamycin”.
